Data published in paper PMC10133546, “Simultaneous determination of multiple components in rat plasma by UHPLC-sMRM for pharmacokinetic studies after oral administration of Qingjin Yiqi Granules” (Frontiers in Pharmacology, 2023).

Key:
[1] = Stability of analytes in rat plasma (auto-sampler, freeze-thaw, room temperature, long-term); settings: for Autosampler for 24 h Accuracy (%): autosampler 24 h; for Room temperature for 24 h Accuracy (%): room temperature 24 h; for Freeze thaw cycles Accuracy (%): three freeze-thaw cycles
Procedure: (§1) The stability of analytes in plasma was evaluated by analyzing 4 QC samples (n = 6). The stability was included auto-sampler stability (keeping the sample in auto-sampler for 24 h), three times of freeze-thaw cycles stability (freezing cycle at −80°C, thawing cycle at room temperature), room temperature stability (storing samples at room temperature for 24 h), long-term stability (storing samples at −80°C for 1 month). […] Accompanying curve was established when testing the sample, calculate and compare the ratio of the actual measured concentration to the theoretical concentration, expressed in accuracy and RSD.

[2] = Pharmacokinetic study in rat plasma after oral administration of QJYQ (UHPLC-sMRM); assay type: in vivo, Sprague-Dawley rats
Procedure: Exion LC AD tandem Blueline 3500 triple quadrupole mass spectrometer (AB SCIEX, Framingham, MA, United States) was used to thirty-three compounds in rat plasma. […] The whole detailed parameters of sMRM were obtained in Supplementary Table S1.
Rat plasma (100 μL) was mixed with 10% formic acid (10 μL) and vortexed for 1 min at room temperature. ISs (10 μL) and methanol/acetonitrile (1/1, v/v) (400 μL) were added and vortexed for 5 min, then centrifuged for 10 min at 14,000 rpm and 4°C. The transported supernatant was condensed to dryness under the flow of nitrogen gas. The dried residue was reconstituted with 70% methanol (100 μL) by vortex-mixing for 5 min and centrifuging at 14,000 rpm for 10 min. Last, 2 μL of the solution were injected into the UHPLC-sMRM system.
The pharmacokinetic study was approved by the Animal Ethics Committee of Tianjin University of Traditional Chinese Medicine (TCM-LAEC2021228). Ten male Sprague-Dawley rats (weight 220–240 g) was kept at the animal center of Tianjin University of Traditional Chinese Medicine (Tianjin, China). […] The sample was transferred right away following a 10 min period of centrifugation at 7000 rpm and 4°C. All plasma samples were frozen and stored at −80°C.
All the pharmacokinetic parameters were calculated using the DAS 1.0 software (Drug and Statistics 1.0, Medical College of Wannan, China). Pharmacokinetic parameters include the maximum drug concentration in plasma (Cmax), the time to achieve maximum drug concentration (Tmax), the area under the plasma concentration-time curve (AUC), elimination half-life (T1/2), and mean residence time (MRT). The pharmacokinetic parameters were computed using the non-compartmental model. All data are expressed as mean ± standard deviation (SD). GraphPad Prism 8.0 (GraphPad Software Inc., La Jolla, CA, United States) software was used to draw the drug-time curve.

[3] = Stability of the working solution (4°C for 1 month); assay type: physicochemical
Procedure: as §1

Row | Autosampler for 24 h Accuracy (%) ([1]; 12.5 ng/mL) | Room temperature for 24 h Accuracy (%) ([1]; 12.5 ng/mL) | Freeze thaw cycles Accuracy (%) ([1]; 12.5 ng/mL) | −80°C for 1month Accuracy (%) ([1]; 12.5 ng/mL, −80°C 1 month) | Autosampler for 24 h Accuracy (%) ([1]; 50 ng/mL) | Autosampler for 24 h Accuracy (%) ([1]; 100 ng/mL) | Room temperature for 24 h Accuracy (%) ([1]; 100 ng/mL) | Freeze thaw cycles Accuracy (%) ([1]; 100 ng/mL) | Room temperature for 24 h Accuracy (%) ([1]; 500 ng/mL) | Freeze thaw cycles Accuracy (%) ([1]; 500 ng/mL) | Working solution Accuracy (%) ([3]; 500 ng/mL) | Working solution Accuracy (%) ([3]; 1.56 ng/mL) | Working solution Accuracy (%) ([3]; 12.5 ng/mL) | SMILES | Room temperature for 24 h Accuracy (%) ([1]; 50 ng/mL) | −80°C for 1month Accuracy (%) ([1]; 50 ng/mL, −80°C 1 month) | Autosampler for 24 h Accuracy (%) ([1]; 500 ng/mL) | −80°C for 1month Accuracy (%) ([1]; 500 ng/mL, −80°C 1 month) | −80°C for 1month Accuracy (%) ([1]; 100 ng/mL, −80°C 1 month) | Working solution Accuracy (%) ([3]; 50 ng/mL) | Working solution Accuracy (%) ([3]; 100 ng/mL) | further results
1 | 94.6 | 97.3 | 100.0 | 98.3 | 97.5 | 96.9 | 105.0 | 95.5 | 94.3 | 96.9 |  |  |  | O=C(/C=C/c1ccc(O)c(O)c1)O[C@@H]1C[C@](O)(C(=O)O)C[C@@H](O)[C@H]1O [chlorogenic acid] | 106.0 | 115.0 | 85.5 | 94.3 |  |  |  | detection in rat plasma ([2]; rat plasma after oral QJYQ 3.15 g/kg): not detected
2 | 101.0 | 108.0 | 98.1 |  |  | 93.8 | 100.0 | 93.2 | 95.7 | 95.1 | 88.5 | 83.8 | 105.0 | C[C@]1(OC(=O)/C=C/c2ccccc2)C[C@@H](O)[C@]2(O)C=CO[C@@H](O[C@@H]3O[C@H](CO)[C@@H](O)[C@H](O)[C@H]3O)[C@@H]21 [harpagoside] |  |  |  |  |  |  |  | Autosampler for 24 h Accuracy (%) ([1]; 1.56 ng/mL): 105.0%; Room temperature for 24 h Accuracy (%) ([1]; 1.56 ng/mL): 95.0%; Freeze thaw cycles Accuracy (%) ([1]; 1.56 ng/mL): 91.5%; −80°C for 1month Accuracy (%) ([1]; 1.56 ng/mL, −80°C 1 month): 86.6%
3 | 91.1 |  | 92.0 | 96.3 |  | 100.0 | 98.0 | 95.7 | 98.6 | 93.2 | 86.7 | 90.5 | 100.0 | COc1c2c(cc3oc(CO)cc(=O)c13)O[C@H](C(C)(C)O)C2 [cimifugin] |  |  | 102.0 | 95.2 | 99.6 |  |  | Autosampler for 24 h Accuracy (%) ([1]; 1.56 ng/mL): 102.0%; Room temperature for 24 h Accuracy (%) ([1]; 1.56 ng/mL): 92.4%; Freeze thaw cycles Accuracy (%) ([1]; 1.56 ng/mL): 84.5%; −80°C for 1month Accuracy (%) ([1]; 1.56 ng/mL, −80°C 1 month): 83.9%
4 |  |  |  |  |  |  |  |  |  |  | 87.0 | 100.0 | 90.2 | COc1cc(/C=C/C(=O)O)cc(OC)c1O [sinapic acid] |  |  |  |  |  |  | 94.2 | AUC(0-t) ([2]; rat, in vivo, po, 3.15 g/kg): 86.98 ± 6.62 ng·h/mL; AUC(0-∞) ([2]; rat, in vivo, po, 3.15 g/kg): 86.99 ± 6.62 ng·h/mL; Cmax ([2]; rat, in vivo, po, 3.15 g/kg): 26.77 ± 7.87 ng/mL; MRT (0-∞) ([2]; rat, in vivo, po, 3.15 g/kg): 6.28 ± 0.91 h; MRT(0-t) ([2]; rat, in vivo, po, 3.15 g/kg): 6.28 ± 0.91 h; T1/2 ([2]; rat, in vivo, po, 3.15 g/kg): 2.20 ± 0.13 h
5 |  |  |  |  |  |  |  |  |  |  |  |  |  | CC(=O)O[C@H]1[C@H](O[C@H]2CC[C@]34C[C@]35CC[C@]3(C)[C@@H]([C@@]6(C)CC[C@@H](C(C)(C)O)O6)[C@@H](O)C[C@@]3(C)[C@@H]5C[C@H](O[C@@H]3O[C@H](CO)[C@@H](O)[C@H](O)[C@H]3O)[C@H]4C2(C)C)OC[C@@H](O)[C@@H]1O [astragaloside II(IS)] |  |  |  |  |  |  |  | Autosampler for 24 h Accuracy (%) ([1]; concentration 100 ng/mL): 105.0%; −80°C for 1month Accuracy (%) ([1]; −80°C for 1 month, concentration 100 ng/mL): 115.0%; Working solution Accuracy (%) ([3]; concentration 100 ng/mL): 96.7%
6 |  | 94.4 | 97.6 | 85.7 | 98.3 | 99.5 | 92.9 |  | 95.2 |  | 98.2 |  | 93.5 | O=C1C[C@@H](c2ccc(O)cc2)Oc2cc(O)cc(O)c21 [naringenin] |  | 98.2 | 107.0 | 94.2 | 97.4 | 102.0 | 85.6 | 

Row | SMILES | Autosampler for 24 h Accuracy (%) ([1]; 12.5 ng/mL) | Room temperature for 24 h Accuracy (%) ([1]; 12.5 ng/mL) | Freeze thaw cycles Accuracy (%) ([1]; 12.5 ng/mL) | −80°C for 1month Accuracy (%) ([1]; 12.5 ng/mL, −80°C 1 month) | Autosampler for 24 h Accuracy (%) ([1]; 50 ng/mL) | Autosampler for 24 h Accuracy (%) ([1]; 100 ng/mL) | Room temperature for 24 h Accuracy (%) ([1]; 100 ng/mL) | Freeze thaw cycles Accuracy (%) ([1]; 100 ng/mL) | Room temperature for 24 h Accuracy (%) ([1]; 500 ng/mL) | Freeze thaw cycles Accuracy (%) ([1]; 500 ng/mL) | Working solution Accuracy (%) ([3]; 500 ng/mL) | Working solution Accuracy (%) ([3]; 1.56 ng/mL) | Working solution Accuracy (%) ([3]; 12.5 ng/mL) | Room temperature for 24 h Accuracy (%) ([1]; 50 ng/mL) | −80°C for 1month Accuracy (%) ([1]; 50 ng/mL, −80°C 1 month) | Autosampler for 24 h Accuracy (%) ([1]; 500 ng/mL) | −80°C for 1month Accuracy (%) ([1]; 500 ng/mL, −80°C 1 month) | −80°C for 1month Accuracy (%) ([1]; 100 ng/mL, −80°C 1 month) | Working solution Accuracy (%) ([3]; 50 ng/mL) | Working solution Accuracy (%) ([3]; 100 ng/mL) | further results
7 | CC(C)(O[C@@H]1O[C@H](CO)[C@@H](O)[C@H](O)[C@H]1O)[C@@H]1CC[C@](O)(CO)[C@H]2CC(=O)[C@@](C)(O)[C@@H]2C1 [atractyloside A] |  |  |  |  | 107.0 | 94.4 | 104.0 |  | 91.2 |  | 97.2 |  |  | 97.6 | 89.7 | 103.0 | 92.2 | 96.2 | 88.5 | 104.0 | Freeze thaw cycles Accuracy (%) ([1]; 50 ng/mL): 84.6%; Autosampler for 24 h Accuracy (%) ([1]; 200 ng/mL): 91.5%; Room temperature for 24 h Accuracy (%) ([1]; 200 ng/mL): 89.9%; Freeze thaw cycles Accuracy (%) ([1]; 200 ng/mL): 97.0%; −80°C for 1month Accuracy (%) ([1]; 200 ng/mL, −80°C 1 month): 93.4%; Working solution Accuracy (%) ([3]; 200 ng/mL): 87.0%
8 | O=C(O)[C@H]1O[C@@H](Oc2cc3oc(-c4ccc(O)cc4)cc(=O)c3c(O)c2O)[C@H](O)[C@@H](O)[C@@H]1O [scutellarin] |  |  |  |  |  | 109.0 | 101.0 | 111.0 | 105.0 | 112.0 | 100.0 |  |  | 91.2 | 92.2 | 101.0 | 103.0 | 101.0 | 97.2 | 108.0 | Autosampler for 24 h Accuracy (%) ([1]; 200 ng/mL): 94.7%; Room temperature for 24 h Accuracy (%) ([1]; 200 ng/mL): 90.6%; Freeze thaw cycles Accuracy (%) ([1]; 200 ng/mL): 85.4%; −80°C for 1month Accuracy (%) ([1]; 200 ng/mL, −80°C 1 month): 90.4%; Working solution Accuracy (%) ([3]; 200 ng/mL): 99.4%
9 | C[C@@H]1O[C@@H](Oc2c(-c3ccc(O)c(O)c3)oc3cc(O)cc(O)c3c2=O)[C@H](O)[C@H](O)[C@H]1O [quercitrin] | 94.7 | 87.1 | 90.0 | 97.1 |  | 98.3 | 99.6 | 100.0 | 98.0 | 89.3 | 99.1 | 92.6 |  |  |  | 108.0 | 96.0 | 95.6 |  | 90.4 | Autosampler for 24 h Accuracy (%) ([1]; 1.56 ng/mL): 95.2%; Room temperature for 24 h Accuracy (%) ([1]; 1.56 ng/mL): 85.2%; Freeze thaw cycles Accuracy (%) ([1]; 1.56 ng/mL): 86.2%; −80°C for 1month Accuracy (%) ([1]; 1.56 ng/mL, −80°C 1 month): 86.7%
